The source of these data is patent US8748435B2, “Pyrazolo pyrimidine derivatives” (Novartis AG, priority 2011, dated 2014).

Test [1] has as its system VEGF-induced angiogenesis. The test can be described thus: GPR4 activity in VEGF-induced angiogenesis in mice (growth factor implant model). It counts as in vivo. The note with it: po 30 mg/kg bid, day 4 after chamber implantation. Here is the method:
d) GPR4 Activity in VEGF-Induced Angiogenesis in Mice
The functional activity of GPR4 was determined in the angiogenesis growth factor implant model. Porous tissue chambers made of perfluoro-alkoxy-Teflon were filled with 0.8% agar and 20 U/ml heparin supplemented with or without 8 μg/ml recombinant human VEGF. The solutions were maintained at 39° C. prior to the filling procedure. Mice were anesthetized using 3% isoflurane inhalation. For subcutaneous implantation, a small skin incision was made at the base of the tail to allow the insertion of an implant trocar. The chamber was implanted under aseptic conditions through the small incision onto the back of the animal. The skin incision was closed by wound clips. The compounds were applied po at 30 mg/kg bid starting at the day of the chamber implantation.
On the 4th day after implantation, animals were sacrificed using CO2. Chambers were excised and the vascularized fibrous tissue formed around each implant carefully removed and weighed and expressed as Δ tissue weight % [((compound/VEGF)−(no compound/no VEGF))/((no compound/VEGF)−no compound/no VEGF))×100]. Body weight was used to monitor the general condition of the mice.

Test [2] relates to antigen-induced arthritis (knee swelling). As to the kind of experiment: Rat antigen-induced arthritis model. The note with it: oral gavage, AUC of R/L knee swelling ratio vs control. It counts as in vivo. The protocol:
e) GPR4 Activity in Rat Antigen-induced Arthritis Model Female Lewis rats were sensitised intradermally on the back at two sites to methylated bovine serum albumin (mBSA) homogenised 1:1 with complete Freund's adjuvant on days −21 and −14 (0.1 ml containing 1 mg/ml mBSA). On day 0, the right knee received […] of 10 mg/ml mBSA in 5% glucose solution (antigen injected knee), while the left knee received […] of 5% glucose solution alone (vehicle injected knee). The diameters of the left and right knees were then measured using calipers immediately after the intra-articular injections and again on days 2, 4 and 7. The compounds of the invention were administered twice daily by oral gavage; vehicle (saline) at 5 ml/kg, and dexamethasone at 0.3 mg/kg was given as a control. Right knee swelling was calculated as a ratio of left knee swelling, and the R/L knee swelling ratio plotted against time to give Area Under the Curve (AUC) graphs for control and treatment groups. The percentage inhibition of the individual treatment group AUCs were calculated vs the control group AUC (0% inhibition).

Test [3] concerns CFA-induced hyperalgesia. As to the kind of experiment: Established rat hyperalgesia model (CFA). The class given is in vivo. The settings on record: gavage. The protocol:
f) Established Rat Hyperalgesia Model
Naïve withdrawal thresholds of both hind paws were determined by using an increasing pressure stimulus placed onto the dorsal surface of each paw using an analgesymeter. Delayed inflammatory pain was then induced by intra-plantar injection of 25 μl of complete Freund's adjuvant (CFA) into one hindpaw with the contralateral paw acting as the control. […] One hour later, paw withdrawal thresholds were re-measured on both the ipsilateral (CFA-injected) and contralateral (uninjected) paw; measurements were repeated at 3 hrs and 6 hrs post dosing. The reversal of hyperalgesia was calculated using the following formula: Reversal (%)=100×(postdose ipsilateral threshold−predose ipsilateral threshold) (naïve ipsilateral threshold−predose ipsilateral threshold).

Test [4] concerns the target T1, human GPR4 (Homo sapiens (Human), UniProt P46093). As to the kind of experiment: Human GPR4 binding assay ([3H]4 radioligand, membranes of 300.19 cells expressing human GPR4). The settings on record: radioligand [3H]4 (example 39), membranes of 300.19 cells expressing human GPR4.
Test [5] has as its target T1, human GPR4. The test can be described thus: Human GPR4 binding assay with additional human serum albumin (4% HSA). The note with it: binding assay with 4% HSA.
The target in test [6] is T1, human GPR4. As to the kind of experiment: Cell-based assay for human GPR4 activity (pH-induced cAMP formation, HTRF, HeLa cells). The settings on record: HeLa cells stably expressing human GPR4, pH-induced cAMP. For orientation: Cyclic AMP is a second messenger, typically raised through Gs and lowered through Gi signalling.
For test [7], the target named is mouse GPR4 (Mus musculus (Mouse), UniProt Q8BUD0). The test can be described thus: Mouse GPR4 cAMP assay. It counts as cell-based.
Test [8] addresses rat GPR4 (Rattus norvegicus (Rat), UniProt Q4KLH9). As to the kind of experiment: Rat GPR4 cAMP assay. The settings on record: read-out: r cAMP IC50. The class given is cell-based.
For test [9], the target named is Human H3 (Homo sapiens (Human), UniProt Q9Y5N1). The test can be described thus: Human H3 binding assay (SPA, [3H]-R-alpha-Methylhistamine). The settings on record: 3 nM [3H]-R-alpha-Methylhistamine.
Chain of Human H3 (Q9Y5N1 whole entry): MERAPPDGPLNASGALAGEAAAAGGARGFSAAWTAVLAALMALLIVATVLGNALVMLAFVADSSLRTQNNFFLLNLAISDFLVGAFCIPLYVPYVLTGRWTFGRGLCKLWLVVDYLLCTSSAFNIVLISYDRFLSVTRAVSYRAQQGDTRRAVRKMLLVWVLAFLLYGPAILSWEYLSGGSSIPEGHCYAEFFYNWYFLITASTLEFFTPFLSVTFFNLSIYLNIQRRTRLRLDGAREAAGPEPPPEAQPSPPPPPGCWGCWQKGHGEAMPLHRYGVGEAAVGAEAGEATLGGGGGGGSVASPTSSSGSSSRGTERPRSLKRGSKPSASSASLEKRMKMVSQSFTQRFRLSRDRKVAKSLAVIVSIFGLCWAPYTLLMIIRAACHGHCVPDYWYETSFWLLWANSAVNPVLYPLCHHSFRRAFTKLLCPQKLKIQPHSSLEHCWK

T1 sequence (P46093 whole entry): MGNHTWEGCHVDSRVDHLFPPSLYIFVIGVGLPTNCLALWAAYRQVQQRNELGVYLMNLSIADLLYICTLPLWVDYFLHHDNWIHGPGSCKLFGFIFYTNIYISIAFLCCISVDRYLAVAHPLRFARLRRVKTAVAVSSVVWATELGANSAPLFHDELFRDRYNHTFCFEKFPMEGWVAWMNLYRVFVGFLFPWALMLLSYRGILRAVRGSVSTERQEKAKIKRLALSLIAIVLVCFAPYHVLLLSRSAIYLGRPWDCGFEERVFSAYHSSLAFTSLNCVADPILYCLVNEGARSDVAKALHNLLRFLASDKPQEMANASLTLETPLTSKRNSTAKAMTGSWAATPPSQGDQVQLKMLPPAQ
Chain of mouse GPR4 (Q8BUD0 whole entry): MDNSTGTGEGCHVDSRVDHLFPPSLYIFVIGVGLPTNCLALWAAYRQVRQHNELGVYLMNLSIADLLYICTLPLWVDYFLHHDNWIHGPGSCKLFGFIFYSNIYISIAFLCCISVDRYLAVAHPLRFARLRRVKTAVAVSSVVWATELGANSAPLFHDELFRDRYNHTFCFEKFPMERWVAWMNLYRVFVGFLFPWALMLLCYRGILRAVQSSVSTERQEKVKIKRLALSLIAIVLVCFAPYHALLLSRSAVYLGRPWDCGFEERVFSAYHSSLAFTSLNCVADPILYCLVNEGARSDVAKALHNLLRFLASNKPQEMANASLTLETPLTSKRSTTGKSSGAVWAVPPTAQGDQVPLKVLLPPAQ
Chain of rat GPR4 (Q4KLH9 whole entry): as the sequence (Q8BUD0 whole entry) above, with G8W, H51R, S339T counted along it

`CCc1nn2c(C)cc(C)nc2c1Cc1ccc(-c2nnc(C3CCNCC3)o2)cc1` [Example 35, 2-Ethyl-5,7-dimethyl-3-[4-(5-piperidin-4-yl-[,3,4]oxadiazol-2-yl)-benzyl]-pyrazolo[1,5-a]pyrimidine] registered a Δ tissue weight in test [1] of 49%. Besides, the figures for the Inhibition of swelling in test [2] (30 mg/kg bid), in test [2] (60 mg/kg bid) and in test [2] (90 mg/kg bid) were 26%, 34% and 40%, respectively. Further, the “% reversal of hyperalgesia” value is listed as 36% in test [3] (3 mg/kg, 1 h); 25% in test [3] (3 mg/kg, 3 h); 5% in test [3] (3 mg/kg, 6 h); 43% in [3] (10 mg/kg, 1 h); 36% in test [3] (10 mg/kg, 3 h); 15% in [3] (10 mg/kg, 6 h). Also, the “% reversal of hyperalgesia” value was 62% in test [3] (30 mg/kg, 1 h); 47% in [3] (30 mg/kg, 3 h); 25% in [3] (30 mg/kg, 6 h).
Consider `CCc1nn2c(C)cc(C)nc2c1Cc1ccc(/C=C/CN2CCN[C@@H](C)C2)cc1` [Example 9, 2-Ethyl-5,7-dimethyl-3-{4-[(E)-3-((S)-3-methyl-piperazin-1-yl)-propenyl]-benzyl}-pyrazolo[1,5-a]pyrimidine], for which the half-maximal inhibitory concentration (IC50) in [4] turned out to be 19 nM; in [5] it was 6 nM; in test [6], 59 nM; in test [7], 890 nM; in test [8], 1440 nM; in test [9] it was 18000 nM. Further, the Δ tissue weight in [1] came out at 44%.
Take `CCc1nn2c(C)cc(C)nc2c1Cc1ccc(-n2cc(CN3CCNCC3)cn2)cc1` [Example 31, 2-Ethyl-5,7-dimethyl-3-[4-(4-piperazin-1-ylmethyl-pyrazol-1-yl)-benzyl]-pyrazolo[1,5-a]pyrimidine]: the IC50 in test [4] was 43 nM; in test [5] it was 61 nM; in test [6], 53 nM; in test [7], 511 nM; in test [8], 1330 nM; in test [9], > 30000 nM. The Inhibition of swelling in test [2] (30 mg/kg bid) is recorded as 24%; in test [2] (60 mg/kg bid) it was 38%.

The IC50 is the midpoint of a concentration-inhibition curve.
